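Briefly, cells in 96-well plates were exposed to five compound concentrations for 48 h, and endpoints were estimated by linear interpolation. Here, GI50 denotes the concentration required for 50% inhibition of growth.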 Activity calls are given as the source filed them. No stated cut-off is given here; in the data, active = GI50 up to about 1.1 µM and inactive = higher.
Columns and labels:
Assay in all cases: NCI tumour cell line growth inhibition, 48 h
786-0 = tested on: 786-0
COLO 205 = tested on: COLO 205
HCC 2998 = tested on: HCC 2998
HL-60 = tested on: HL-60
HT-29 = tested on: HT-29
IGROV-1 = tested on: IGROV-1
K562 = tested on: K562
KM12 = tested on: KM12
M14 = tested on: M14
Malme-3M = tested on: Malme-3M
NCI-H460 = tested on: NCI-H460
RXF 393 = tested on: RXF 393
SF-295 = tested on: SF-295
SK-MEL-2 = tested on: SK-MEL-2
SNB-19 = tested on: SNB-19
SNB-75 = tested on: SNB-75
TK-10 = tested on: TK-10
MCF7 = tested on: MCF7
MDA-MB-231 = tested on: MDA-MB-231

Measured: GI50

Oc1ccc2ccccc2c1/N=N/c1ccc(F)cc1
inactive: 786-0 > 100 µM | COLO 205 > 100 µM | HCC 2998 > 100 µM | HL-60 > 100 µM | HT-29 > 100 µM | IGROV-1 > 100 µM | K562 > 100 µM | KM12 72.4 µM | M14 > 100 µM | Malme-3M > 100 µM | NCI-H460 > 100 µM | RXF 393 > 100 µM | SF-295 > 100 µM | SK-MEL-2 > 100 µM | SNB-19 > 100 µM | SNB-75 > 100 µM | TK-10 > 100 µM

N#CC1CC(c2ccccc2)Nc2cc(Cl)ccc2N1 (stereo unspecified)
inactive: 786-0 24.1 µM | COLO 205 7.11 µM | HCC 2998 > 100 µM | HL-60 4.1 µM | HT-29 24.4 µM | IGROV-1 69.7 µM | K562 9.14 µM | KM12 34.8 µM | M14 24.3 µM | Malme-3M 24 µM | NCI-H460 35.4 µM | RXF 393 38.8 µM | SF-295 40.9 µM | SK-MEL-2 29.1 µM | SNB-19 > 50.5 µM | SNB-75 36.5 µM | TK-10 > 100 µM

C=CCC12CCC(=O)C=C1CCC1(C2)OCCO1 (stereo unspecified)
inactive: 786-0 > 100 µM | COLO 205 > 100 µM | HCC 2998 > 100 µM | HL-60 40.4 µM | IGROV-1 > 100 µM | K562 55.2 µM | KM12 > 100 µM | M14 > 100 µM | Malme-3M > 100 µM | NCI-H460 > 100 µM | RXF 393 > 100 µM | SK-MEL-2 > 100 µM | SNB-19 > 100 µM | SNB-75 > 100 µM | TK-10 > 100 µM

CCC(C)C(NC(=O)c1cccc2c(=O)c3ccccc3[nH]c12)C(=O)O (stereo unspecified)
inactive: 786-0 > 100 µM | COLO 205 > 100 µM | HT-29 > 100 µM | IGROV-1 96.8 µM | K562 91.8 µM | KM12 61.1 µM | M14 > 100 µM | MCF7 > 100 µM | MDA-MB-231 > 100 µM | Malme-3M > 100 µM | SF-295 83.4 µM | SK-MEL-2 > 100 µM | SNB-19 99.5 µM | SNB-75 78.7 µM | TK-10 > 100 µM

CC(C)(C)C(=O)C1CC(=O)c2ccccc2C1=O (stereo unspecified)
inactive: 786-0 32.6 µM | COLO 205 31.8 µM | HCC 2998 23.4 µM | HL-60 20.7 µM | IGROV-1 33.7 µM | K562 40.6 µM | KM12 31.8 µM | M14 39.3 µM | Malme-3M 16.3 µM | NCI-H460 29.7 µM | RXF 393 22.2 µM | SF-295 36.2 µM | SK-MEL-2 10.6 µM | SNB-19 24 µM | SNB-75 5.98 µM | TK-10 34.1 µM

N#CC(C#N)c1ccc(C(=O)N2CCC[C@H]2CO)cc1
inactive: 786-0 > 100 µM | COLO 205 > 100 µM | HCC 2998 > 100 µM | HL-60 > 100 µM | HT-29 > 100 µM | IGROV-1 > 100 µM | K562 > 100 µM | KM12 > 100 µM | M14 > 100 µM | Malme-3M > 100 µM | NCI-H460 > 100 µM | RXF 393 > 100 µM | SF-295 > 100 µM | SK-MEL-2 > 100 µM | SNB-19 > 100 µM | SNB-75 > 100 µM | TK-10 > 100 µM

CCC1C(c2cccc(OC)c2O)c2cc3c(cc2OC1N1CCCC1)OCO3 (stereo unspecified)
inactive: 786-0 16.1 µM | COLO 205 > 10 µM | HCC 2998 10 µM | HT-29 16.5 µM | IGROV-1 14.9 µM | K562 11.8 µM | KM12 12 µM | M14 6.43 µM | MCF7 22.2 µM | NCI-H460 20.2 µM | SF-295 16.8 µM | SK-MEL-2 17.1 µM | SNB-19 14.6 µM | SNB-75 17.7 µM | TK-10 16.4 µM

C#CCC(O)c1ccccc1C(O)CC#C (stereo unspecified)
inactive: 786-0 > 100 µM | COLO 205 > 100 µM | HCC 2998 89.3 µM | HL-60 > 100 µM | HT-29 > 100 µM | IGROV-1 > 100 µM | K562 > 100 µM | KM12 > 100 µM | M14 > 100 µM | Malme-3M 79.4 µM | NCI-H460 > 100 µM | RXF 393 29 µM | SF-295 > 100 µM | SK-MEL-2 62.1 µM | SNB-19 > 100 µM | SNB-75 28.2 µM | TK-10 97.5 µM

COc1cc2ccc3c4ccccc4cnc3c2cc1OC
inactive: 786-0 > 100 µM | COLO 205 > 100 µM | HCC 2998 > 100 µM | HL-60 > 100 µM | HT-29 > 100 µM | IGROV-1 > 100 µM | K562 > 100 µM | KM12 > 100 µM | M14 > 100 µM | Malme-3M > 100 µM | NCI-H460 > 100 µM | RXF 393 > 100 µM | SF-295 > 100 µM | SK-MEL-2 > 100 µM | SNB-19 > 100 µM | SNB-75 > 100 µM | TK-10 > 100 µM

C/C(=N/NC(=O)C[N+](C)(C)C)C(CN(C)C)C(=O)Nc1ccccc1 (stereo unspecified)
inactive: 786-0 > 100 µM | COLO 205 > 100 µM | HCC 2998 96.8 µM | HL-60 > 100 µM | HT-29 > 100 µM | IGROV-1 > 100 µM | K562 > 100 µM | KM12 > 100 µM | M14 > 100 µM | Malme-3M > 100 µM | NCI-H460 > 100 µM | RXF 393 > 100 µM | SF-295 > 100 µM | SK-MEL-2 > 100 µM | SNB-19 > 100 µM | SNB-75 > 100 µM | TK-10 > 100 µM

O=c1cccccc1NCCCCCCCCCNc1cccccc1=O
inactive: 786-0 22.1 µM | COLO 205 3.23 µM | HCC 2998 13.3 µM | HL-60 4.06 µM | HT-29 15.7 µM | IGROV-1 19 µM | K562 3.35 µM | KM12 16.1 µM | M14 10.9 µM | Malme-3M 7.52 µM | NCI-H460 9.51 µM | RXF 393 22.5 µM | SF-295 9.64 µM | SK-MEL-2 19 µM | SNB-19 11.5 µM | SNB-75 17.9 µM

N#CC(C(=O)C(N)=O)c1ccccc1Cl (stereo unspecified)
inactive: 786-0 > 100 µM | COLO 205 > 100 µM | HCC 2998 > 100 µM | HL-60 > 100 µM | HT-29 > 100 µM | IGROV-1 > 100 µM | K562 > 100 µM | KM12 > 100 µM | M14 > 100 µM | Malme-3M > 100 µM | NCI-H460 > 100 µM | RXF 393 > 100 µM | SF-295 > 100 µM | SK-MEL-2 > 100 µM | SNB-19 > 100 µM | SNB-75 > 100 µM | TK-10 > 100 µM
